Measurements as given in paper PMC12042122, “The GntR/VanR transcription regulator AlkR represses AlkB2 monooxygenase expression and regulates n‐alkane degradation in Pseudomonas aeruginosa SJTD‐1” (mLife, 2025).

Tests used:
AlkR = molecular target: T1, AlkR (Pseudomonas aeruginosa, UniProt Q9I3I7); assay: EMSA, release of AlkR from alkB2 promoter DNA; assay type: binding; conditions: AlkR 5.8 × 10^-7 M, P3 DNA fragment 5 × 10^-7 M, pH 7.5, 37 °C; not an IC50
T1 construct: gene PA1526
T1 sequence (Q9I3I7 1-219): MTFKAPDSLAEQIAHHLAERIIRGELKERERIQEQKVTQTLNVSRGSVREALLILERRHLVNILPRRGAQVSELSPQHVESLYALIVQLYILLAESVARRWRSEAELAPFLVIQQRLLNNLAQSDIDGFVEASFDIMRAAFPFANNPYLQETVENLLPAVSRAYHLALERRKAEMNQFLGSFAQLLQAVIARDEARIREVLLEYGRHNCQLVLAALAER

[1] = molecular target: AlkR, GntR/VanR transcription regulator of Pseudomonas aeruginosa SJTD-1 (Pseudomonas aeruginosa SJTD-1); assay: cross-linking; purified recombinant AlkR treated with sulfo-EGS, detected by 8% native PAGE
[2] = molecular target: AlkR, GntR/VanR transcription regulator of Pseudomonas aeruginosa SJTD-1 (Pseudomonas aeruginosa SJTD-1); assay: SEC; size exclusion chromatography of purified recombinant AlkR; conditions not given

stoichiometry N [1]	stoichiometry N [2]	Compound	concentration for effective dissociation of the AlkR/DNA complex (AlkR)
		CCCCCCCCCCCCCCCC(=O)SCCNC(=O)CCNC(=O)[C@H](O)C(C)(C)COP(=O)(O)OP(=O)(O)OC[C@H]1O[C@@H](n2cnc3c(N)ncnc32)[C@H](O)[C@@H]1OP(=O)(O)O [C16-CoA, palmitoyl coenzyme A]	~ 150 μM
		CCCCCCCC/C=C\CCCCCCCC(=O)SCCNC(=O)CCNC(=O)[C@H](O)C(C)(C)COP(=O)(O)OP(=O)(O)OC[C@H]1O[C@@H](n2cnc3c(N)ncnc32)[C@H](O)[C@@H]1OP(=O)(O)O [C18-CoA, oleyl coenzyme A]	~ 80 μM
2	2	AlkR, GntR/VanR transcription regulator of Pseudomonas aeruginosa SJTD-1 (natural protein)	
